In US20230285374A1, “THERAPEUTIC METHODS USING VADADUSTAT” (Akebia Therapeutics, Inc., priority 2019, published 2023):

Assays:
[1] = system: subjects receiving hemodialysis, previously maintained on epoetin alfa; conditions: human, in vivo
Description: The primary endpoint was mean hemoglobin (Hb) change from pre-baseline average to midtrial (Weeks 7-8) and end-of trial (Weeks 15-16) and was analyzed using available data (no imputation).

[2] = system: adult patients with NDD-CKD and anemia, not previously treated with an ESA; assay: Phase 3 ESA-untreated NDD-CKD (Correction) trial, vadadustat vs darbepoetin alfa; assay type: in vivo, human; conditions: Correction study
Description: Two global, Phase 3, randomized, open-label, active-controlled, sponsor-blind clinical trials were conducted to evaluate safety and efficacy of vadadustat (Compound 1) vs the ESA darbepoetin alfa in adult patients with NDD-CKD and anemia. Patients recruited into the ESA-untreated NDD-CKD trial (N=1761) had hemoglobin <10 g/dL and were not previously being treated with an ESA. Patients recruited into the ESA-treated NDD-CKD trial (N=1750) had hemoglobin ranges of 8-11 g/dL (US) or 9-12 g/dL (non-US) and were actively treated with an ESA for anemia associated with CKD. Trial periods in both trials included 1) correction/conversion (weeks 0-23); 2) maintenance (weeks 24-52); 3) long-term treatment (week 53 to end of treatment); and 4) safety follow-up (end-of-treatment to 4 weeks later). The primary safety endpoint was time to first adjudicated major adverse cardiovascular event, defined as all-cause mortality, non-fatal myocardial infarction or non-fatal stroke pooled across both trials. The primary efficacy endpoint in each trial was mean change in hemoglobin from baseline to primary evaluation period (weeks 24-36) comparing vadadustat vs darbepoetin alfa treatment arms. Demographics and baseline characteristics were similar among patients in both trials, and typical for a large proportion of the NDD-CKD population. These trials helped define the safety and efficacy of vadadustat, an oral hypoxia-inducible factor prolyl hydroxylase inhibitor for management of anemia associated with NDD-CKD.
Two randomized, Phase 3, open-label, active-controlled clinical trials were conducted to evaluate the safety and efficacy of oral vadadustat versus injectable darbepoetin alfa: Correction (previously ESA-untreated) and Conversion (previously ESA-treated). Target enrollment for each was approximately 1850 patients recruited at approximately 390 and 480 sites in North America, Latin America, Europe, and the Asia Pacific for the ESA-untreated NDD-CKD trial and the ESA-treated NDD-CKD trial, respectively.
Trial Populations. Each trial recruited adults (>18 years of age) with NDD-CKD (estimated glomerular filtration rate 60 mL/min/1.73 m^2). […] In addition to the hemoglobin entry criteria, all patients were required to have serum ferritin ≥100 ng/mL and transferrin saturation 20% at screening in order to be randomized. In the ESA-untreated NDD-CKD trial, ESA use was permitted during screening, as per standard of care; however, patients were excluded if they received any ESA within 8 weeks of randomization. In the ESA-treated NDD-CKD trial, patients were actively maintained on ESA therapy, with at least one dose received within 6 weeks before or during screening. […]

O=C(O)CNC(=O)c1ncc(-c2cccc(Cl)c2)cc1O [Compound 1, Vadadustat]
deaths during the study [1]: No deaths
mean (SD) Hb level ([2]; week 24 to week 36): 10.39 (0.99) g/dL
mean (SD) Hb level ([2]; week 40 to week 52): 10.48 (1.05) g/dL
least square mean difference in Hb (vadadustat vs darbepoetin alfa) ([2]; weeks 24 to 36, non-inferiority margin −0.75 g/dL): 0.05 g/dL
least square mean difference in Hb (vadadustat vs darbepoetin alfa) ([2]; weeks 40 to 52): 0.04 g/dL
